Columns and labels:
[1] = molecular target: T1, proteasome Trypsin-like (T-L) activity (Mus musculus, UniProt P70195+Q9R1P1); assay: Pharmacodynamic proteasome activity in murine red blood cells, T-L; type: in vivo, NOD/SCID mice; details: iv, mice, 2 mg/kg i.v., time 0, read-out: Trypsin-like (T-L) mean residual activity relative to vehicle treated controls
T1 construct: RBCs were lysed with assay lysis buffer and incubated on ice for 30 minutes; from tissue; host or cells: red blood cells of NOD/SCID mice
Method: Cells were harvested by centrifugation at 1,200 rpm at room temperature. Cell pellets were washed with PBS (phosphate buffered saline) and lysed with assay lysis buffer (50 mM HEPES (N-2-hydroxyethylpiperazine-N′-2-ethanesulfonic acid), pH 7.5; 150 mM NaCl; 1% Triton X-100; 2 mM ATP). Cell lysates were incubated on ice for 30 minutes, mixed by vortex every 5 minutes, and then centrifuged at 12,000 g for 10 minutes. The supernatant was transferred to a 96-well plate. For each assay, 10 μg of total protein were incubated for 1 hour at 37° C. with increasing concentrations (1 nM to 10 μM) of test compound diluted in assay buffer (50 mM tris-HCl (tris(hydroxymethyl)aminomethane-HCl), pH 7.5; 150 mM NaCl). DMSO alone was used as a control in every assay plate. After incubation, a specific fluorogenic proteasome substrate was added to each assay reaction at a final concentration of 40 μM in a total volume of 100 μL. N-Succinyl-Leu-Leu-Val-Tyr-7-amino-4-methylcoumarin (Suc-Leu-Leu-Val-Tyr-AMC) was used for measuring chymotrypsin-like (CT-L) activity, t-butoxycarbonyl-Leu-Arg-Arg-7-amino-4-methylcoumarin (Boc-Leu-Arg-Arg-AMC) for trypsin-like (T-L) activity, and benzyloxycarbonyl-L-leucyl-L-leucyl-L-glutamyl-7-amino-4-methylcoumarin (Z-Leu-Leu-Glu-AMC) for caspase-like (C-L) activity. The excitation wavelength was set at 360 nm and the fluorescence emission wavelength of AMC was detected at 460 nm. The fluorescence of free AMC released during the enzymatic reaction was measured with a SpectraMax M5 fluorescent spectrophotometric plate reader (Molecular Devices, Sunnyvale, Calif.). AMC release rate was measured at 37° C. in a kinetic mode, recording every 5 minutes for 30 minutes. Experiments were performed in triplicate and repeated at least twice.
All mouse experiments were performed in accordance with approval from the Ontario Cancer Institute institutional animal review board. Five- to six-week-old male non-obese diabetic/severe combined immunodeficient (NOD/SCID) mice were grouped randomly (n=3 mice per group). Mice were administered vehicle (5% DMSO, 20% Cremophor) or compounds of Formula I at different doses either intravenously or by oral gavage, and venous blood samples (20-50 μL) were collected from each mouse over 24 hours. Blood samples were mixed with heparin (APP Pharmaceuticals; Schaumburg, Ill.) in 0.5 mL tubes in accordance with the manufacturer's instructions. After centrifugal separation at 3,000 g for 10 minutes, red blood cells (RBCs) in the bottom layer were transferred into a new tube and stored at −70° C. until use. RBCs were lysed with assay lysis buffer and incubated on ice for 30 minutes, mixing by vortex every 5 minutes, and then centrifuged at 12,000 g for 10 minutes. The supernatant was transferred to a 96-well plate and proteasome activity was measured as described above for tumor cell lysates.
Proteasome subunit activity (Chymotrypsin-like, Trypsin-like, Caspase-like, CT-L, T-L, C-L, respectively) were monitored over the course of 24 hrs following […] administration of representative compounds of Formula I. NOD/SCID mice were treated with compounds of Formula I (2 mg/kg by iv administration) or vehicle control and carfilzomib for up to 24 hours, as described above. Table 9 summarizes the data on pharmacodynamic activity of representative compounds of Formula I following a dose of 2 mg/kg intravenous (i.v) administration to mice. Data are presented as mean residual activity (SEM) relative to vehicle treated controls.

OVCAR-8 = assay: NCI screening panel, OVCAR-8 (Ovarian Cancer); type: cell-based, human
Method: Representative compounds of Formula I were screened using the National Cancer Institute (NCI) screening panel, which consists of a panel of human tumor cell lines, representing leukemia, melanoma, and cancers of the lung, colon, ovary, breast, prostate and renal system.
After 24 h, two plates of each cell line are fixed in situ with TCA, to represent a measurement of the cell population for each cell line at the time of drug addition (Tz). Experimental drugs are solubilised in dimethyl sulfoxide at 400-fold the desired final maximum test concentration and stored frozen prior to use. At the time of drug addition, an aliquot of frozen concentrate is thawed and diluted to twice the desired final maximum test concentration with complete medium containing 50 μg/mL gentamicin. Additional four, 10-fold or ½ log serial dilutions are made to provide a total of five drug concentrations plus control. Aliquots of 100 μl of these different drug dilutions are added to the appropriate microtiter wells already containing 100 μl of medium, resulting in the required final drug concentrations.
Following drug addition, the plates are incubated for an additional 48 h at 37° C., 5% CO2, 95% air, and 100% relative humidity. For adherent cells, the assay is terminated by the addition of cold TCA (trichloroacetic acid). Cells are fixed in situ by the gentle addition of 50 μl of cold 50% (w/v) TCA (final concentration, 10% TCA) and incubated for 60 minutes at 4° C. The supernatant is discarded, and the plates are washed five times with tap water and air dried. Sulforhodamine B (SRB) solution (100 μl) at 0.4% (w/v) in 1% acetic acid is added to each well, and plates are incubated for 10 minutes at room temperature. After staining, unbound dye is removed by washing five times with 1% acetic acid and the plates are air dried. Bound stain is subsequently solubilised with 10 mM trizma base, and the absorbance is read on an automated plate reader at a wavelength of 515 nm. For suspension cells, the methodology is the same except that the assay is terminated by fixing settled cells at the bottom of the wells by gently adding 50 μl of 80% TCA (final concentration, 16% TCA). Using the seven absorbance measurements [time zero, (Tz), control growth, (C), and test growth in the presence of drug at the five concentration levels (Ti)], the percentage growth is calculated at each of the drug concentrations levels. Percentage growth inhibition is calculated as: [(Ti−Tz)/(C−Tz)]×100 for concentrations for which Ti>/=Tz and [(Ti−Tz)/Tz]×100 for concentrations for which Ti<Tz.
Three dose response parameters are calculated for each experimental agent. Growth inhibition of 50% (GI50) is calculated from [(Ti−Tz)/(C−Tz)]×100=50, which is the drug concentration resulting in a 50% reduction in the net protein increase (as measured by SRB staining) in control cells during the drug incubation. The drug concentration resulting in total growth inhibition (TGI) is calculated from Ti=Tz. The LC50 (concentration of drug resulting in a 50% reduction in the measured protein at the end of the drug treatment as compared to that at the beginning) indicating a net loss of cells following treatment is calculated from [(Ti−Tz)/Tz]×100=−50. Values are calculated for each of these three parameters if the level of activity is reached. However, if the effect is not reached or is exceeded, the value for that parameter is expressed as greater or less than the maximum or minimum concentration tested.

| Structure (SMILES) | remaining activity at 2 mg/kg [1] [%] | Log10GI50 (OVCAR-8) | Log10LC50 (OVCAR-8) | Log10TGI50 (OVCAR-8) |
| --- | --- | --- | --- | --- |
| CC(C)C[C@H](NC(=O)[C@H](Cc1ccccc1)NC(=O)[C@H](COC(F)F)NC(=O)[C@H](COC(F)F)NC(=O)CN1CCOCC1)C(=O)[C@@]1(C)CO1 [Example 11, (2S)-2-[[(2S)-3-(difluoromethoxy)-2-[[(2S)-3-(difluoromethoxy)-2-[(2-morpholinoacetyl)-amino]propanoyl]amino]propanoyl]amino]-N-[(1S)-3-methyl-1-[(2R)-2-methyloxirane-2-carbonyl]butyl]-3-phenyl-propanamide] | 100 | −6.94 | >−4.00 | >−4.00 |
| CC(C)C[C@H](NC(=O)[C@H](COC(F)F)NC(=O)[C@H](COC(F)F)NC(=O)[C@H](CCc1ccccc1)NC(=O)CN1CCOCC1)C(=O)[C@@]1(C)CO1 [Example 7, (2S)-N-[(1S)-1-(difluoromethoxymethyl)-2-[[(1S)-1-(difluoromethoxymethyl)-2-[[(1S)-3-methyl-1-[(2R)-2-methyloxirane-2-carbo-nyl]butyl]amino]-2-oxo-ethyl]amino]-2-oxo-ethyl]-2-[(2-morpholinoacetyl)amino]-4-phenyl-butanamide] | 100 | −6.94 | >−4.00 | −5.93 |
| CC(C)C[C@H](NC(=O)[C@H](COC(F)F)NC(=O)CN1CCOCC1)C(=O)N[C@@H](Cc1ccccc1)C(=O)N[C@@H](CC(C)C)C(=O)[C@@]1(C)CO1 [Example 2, (2S)-N-[(1S)-1-benzyl-2-[[(1S)-3-methyl-1-[(2R)-2-methyloxirane-2-carbonyl]butyl]-amino]-2-oxo-ethyl]-2-[[(2S)-3-(difluoromethoxy)-2-[(2-morpholinoacetyl)amino]propanoyl]amino]-4-methyl-pentanamide] | 100 | −7.22 | >−4.00 | −6.25 |
| CC(C)C[C@H](NC(=O)[C@H](COC(F)F)NC(=O)CN1CCOCC1)C(=O)N[C@@H](Cc1ccccc1)C(=O)N[C@@H](Cc1ccccc1)C(=O)[C@@]1(C)CO1 [Example 3, (2S)-N-[(1S)-1-benzyl-2-[[(1S)-1-benzyl-2-[(2R)-2-methyloxiran-2-yl]-2-oxo-ethyl]amino]-2-oxo-ethyl]-2-[[(2S)-3-(difluoromethoxy)-2-[(2-morpholinoacetyl)-amino]propanoyl]amino]-4-methyl-pentan-amide] | 100 | −7.25 | >−4.00 | −6.29 |
| CC(C)C[C@H](NC(=O)[C@H](COC(F)F)NC(=O)CN1CCOCC1)C(=O)N[C@@H](COC(F)F)C(=O)N[C@@H](Cc1ccccc1)C(=O)[C@@]1(C)CO1 [Example 4, (2S)-N-[(1S)-2-[[(1S)-1-benzyl-2-[(2R)-2-methyloxiran-2-yl]-2-oxo-ethyl]amino]-1-(difluoromethoxymethyl)-2-oxo-ethyl]-2-[[(2S)-3-(difluoromethoxy)-2-[(2-mor-pholinoacetyl)amino]propanoyl]amino]-4 methyl-pentanamide] | 100 | −6.67 | >−4.00 | −5.89 |
| CC(C)C[C@H](NC(=O)[C@H](COC(F)F)NC(=O)[C@H](COC(F)F)NC(=O)[C@H](COC(F)F)NC(=O)CN1CCOCC1)C(=O)[C@@]1(C)CO1 [Example 17, (2S)-3-(difluoromethoxy)-N-[(1S)-1-(difluoromethoxymethyl)-2-[[(1S)-1-(difluoro-methoxymethyl)-2-[[(1S)-3-methyl-1-[(2R)-2-methyloxirane-2-carbonyl]butyl]amino]-2-oxo-ethyl]amino]-2-oxo-ethyl]-2-[(2-mor-pholinoacetyl)amino]-propanamide] | 100 | −6.31 | >−4.00 | −5.25 |
| CC(C)C[C@H](NC(=O)[C@H](COC(F)F)NC(=O)CN1CCOCC1)C(=O)N[C@@H](COC(F)F)C(=O)N[C@@H](CC(C)C)C(=O)[C@@]1(C)CO1 [Example 1, (2S)—N-[(1S)-1-(difluoromethoxymethyl)-2-[[(1S)-3-methyl-1-[(2R)-2-methyloxirane-2-carbonyl]butyl]amino]-2-oxo-ethyl]-2-[[(2S)-3-(difluoromethoxy)-2-[(2-morpholinoacetyl)amino]propanoyl]amino]-4-methyl-pentanamide] | 100 | −6.85 | >−4.00 | >−4.00 |
